Source: patent US11612634B2 (priority 2020, dated 2023)
Entries after “also recorded” stand apart in the source; their conditions may differ.

Columns and labels:
[1] = system: bone cancer pain (BCP) rat model; test: Analgesic effect on mechanical hyperalgesia (PWT) in BCP rat model; type: in vivo; settings: for analgesic effect on BCP, low dose: repeated
Method: The tumor cell implantation (TCI) surgery was performed according to the method proposed by Medhurst S J, et al (Medhurst S. J., Walker K., Bowes M., Kidd B. L., Glatt M., Muller M., et al. (2002). A rat model of bone cancer pain. Pain 96 129-140). Walker 256 mammary gland carcinoma cells were transferred from a liquid nitrogen tank, thawed quickly in a 37° C. water bath and loaded into a centrifugal tube. Then the cells were added with an appropriate amount of normal saline and centrifuged at 1200 r/min for 6 min. The supernatant was discarded, and the cells were washed again, and suspended with phosphate buffered saline (PBS) to 1×10^7/mL. Young female SD rats, weighing 90-100 g, were intraperitoneally injected with 0.5 mL of mammary gland carcinoma cells, and a large amount of ascites occurred after 6-7 days of the injection. 10 mL of ascites was extracted and centrifuged for 5 min. The precipitate was washed with normal saline and then diluted with PBS to 1×10^5/mL. The rats were anesthetized with 10% chloral hydrate and shaved, and a 1-cm incision was made in the upper half skin of the right tibia to expose the bone surface with a minimal damage to the surrounding muscle or blood vessels. The bone was pierced with a 4 # needle at 5 mm below a knee joint distal to an epiphysial growth plate, and the needle was inserted to a depth so that it can be pushed into the medullary cavity. The needle was then removed, and a 10 […] needle containing cells to be injected was inserted into the medullary cavity, determining whether the needle was located in the medullary cavity by withdrawal. 5 mL (1×10^5/mL) of cancer cells were injected into the medullary cavity, and whether there are cells or blood leaking out from the injection site was observer.
The needle was kept in the medullary cavity for 1 min and then was withdrawn to enable the full cell spreading, and the injection site was pressed by a cotton swab for 1 min and closed with bone cement. The wound was sutured and treated with penicillin powder. The PWT was measured 3 days after modeling, where those rat models with a significant lower PWT were considered as successful BCP rat models, and the undesirable models were removed.
(S1) Healthy adult SD rats, weighing 180-220 g, were selected, numbered on tails and transferred to the same cage (15 rats in total).
(S2) The rats were maintained in the measuring room for 2 h for adaptation.
The measurement was repeated 3-5 times for each rat with an interval of 5-10 min, and the results were averaged. The rats were allowed to rest for several hours to build a BCP model.
Those unsuccessful models were removed, and on the 22nd day after modeling, the successfully-established models were randomly divided into 3 groups, where the groups A-C were subcutaneously with normal saline, […], respectively. 1.5 h later, the PWT of the right hind paw of each group was measured. Each rat was measured 3-5 times with an interval of 5-10 min, and the PWTs were averaged as the practical PWT (unit: g). The drug administration was performed twice a day (at 9:30 a.m. and 4:30 p.m.) for consecutive 4 days, and the PWT of each group before and after administration was measured in the morning every day. […]

[2] = system: CCI-induced neuropathic pain rat model; test: Analgesic effect on mechanical hyperalgesia (PWT) in CCI-induced neuropathic pain rat model; type: in vivo
Method: The chronic constriction nerve injury (CCI)-induced neuropathic pain rat model was built according to a published method (Bennett G J, et al. Pain, 1988). The experimental rats were anesthetized by intraperitoneal injection of 10 wt % chloral hydrate (300 mg/kg), and then placed on a super-clean bench, and the operation area was disinfected with iodophor.
The ligation tightness should be adjusted to cause slight twitching of a leg on an operated side of the rat without affecting the blood circulation of the epineurium. The wound was sutured layeredly and wiped with iodophor according to the postoperative situation. The rats were transferred back into a cage for rest upon fully recovering. The PWT was measured 5 days after modeling, where those with a significant lower PWT were considered as successful neuropathic pain rat models, and the undesirable rats were excluded.
(S1) A total of 15 healthy adult SD rats, weighing 180-220 g, were selected, numbered on tails and placed in the same cage.
(S2) The rats were raised in a measuring room for 2 h for adaptation.
The measurement was repeated 3-5 times for each rat at an interval of 5-10 min, and the results were averaged. Then the rats were allowed to rest for several hours and then adopted to build a CCI-induced neuropathic pain model.
(S4) The PWT was measured on the morning of the 3rd day and the 6th day after the modeling, and those unsuccessful models were removed. And on the 6th after the modeling, the successful rat models were randomly divided into 3 groups, where the group A was injected with normal saline; the group B was injected with 5 mg/kg of morphine; and the group C was intradermally injected with 8 μg/kg of the short peptide P10581 into the left hind paw. 1 h later, the PWT of each group was recorded when the left hind paw generated mechanical withdrawal. Each of the rats was measured 3-5 times at an interval of 5-10 min, and the PWTs were averaged as the actual PWT (unit: g). The drug injection was fixedly performed at 9:00 a.m. and 5:30 p.m. from the 6th day to the 14th day after modeling, and the PWT of each group was measured before and after administration every other day. On the 15th day after modeling, the group B was injected with 8 μg/kg of the short peptide P10581 and the group C was injected with 5 mg/kg of the morphine, and the PWT of the group B and group C was recorded when the mechanical withdrawal occurred to the left hind paw.
(1) 30 healthy adult SD rats, weighing 180-220 g, were selected to build a CCI-induced neuropathic pain model. On the 8th day after the modeling, successfully-established models were randomly divided into 6 groups, where the group A was injected with 0.45 μg/kg of the short peptide P10581; the group B was injected with 0.9 μg/kg of the short peptide P10581; the group C was injected with 1.8 μg/kg of the short peptide P10581; the group D was injected with 3.6 μg/kg of the short peptide P10581; the group E was injected with 7.2 μg/kg of the short peptide P10581; and the group F was injected with 8.5 μg/kg of the short peptide P10581. The PWT of each group was measured 1.5 h later.
(2) Each group was injected with 7.2 μg/kg of the short peptide P10581 at 5:30 p.m. on the 8th day after modeling, and then continuously injected from the 9th day to the 16th day 16 (injected with 7.2 μg/kg of the short peptide P10581 at 9:00 a.m. and 5:30 p.m. a day). The PWT of rats before and after administration in the morning was measured every other day.
(3) On the 17th day after modeling, the six groups were injected with different doses of the short peptide P10581, respectively, according to step (1). 1.5 h later, the PWT of each group was measured to evaluate the effect of dose.
(1) 15 healthy adult SD rats, weighing 180-220 g, were selected to build a CCI-induced neuropathic pain model.

[3] = 14.4 μg/kg, twice a day, 4 days
[4] = 8 μg/kg i.d., twice a day, repeated

| Compound | analgesic effect on BCP, low dose ([1]; 0.2 μg/kg S.C.) | analgesic effect on BCP, low dose ([1]; 0.4 μg/kg S.C.) | analgesic effect on BCP [1, 3] | analgesic tolerance after repeated injection [1, 3] | analgesic effect on neuropathic pain threshold, low dose ([2]; 0.1 μg/kg i.d., twice a day) | IC50 before vs after repeated administration ([2]; 7.2 μg/kg i.d. repeated (FIG. 8D)) | change of PWT after repeated high-dose administration ([2]; 7.2 μg/kg i.d., twice a day, 9 days, test doses 0.45-8.5 μg/kg) | analgesic effect in morphine-tolerant rats ([2]; 8 μg/kg i.d. on day 10 after repeated morphine 5 mg/kg) | analgesic effect on neuropathic pain [2, 4] | analgesic tolerance after repeated injection [2, 4] | administration dose at which analgesic effect reached the peak ([2]; neuropathic pain, i.d.) [µg/kg] | analgesic effect / tolerance after repeated injection ([1]; rat, in vivo) | analgesic effect on BCP ([1]; rat, in vivo) | analgesic effect / tolerance after repeated injection ([2]; rat, in vivo) | analgesic effect of morphine after repeated P10581 ([2]; rat, in vivo) |
| --- | --- | --- | --- | --- | --- | --- | --- | --- | --- | --- | --- | --- | --- | --- | --- |
| WKCNPNDDKCCRPKLKC [P10581] | no analgesic effect | no analgesic effect on BCP | significantly alleviate the BCP | without developing the analgesic tolerance | no effect on the threshold of neuropathic pain in rats | did not bring significant difference to the IC50 | no obvious change occurred to the PWT | neuropathic pain threshold of rats can be reversed | neuropathic pain was alleviated | no analgesic tolerance occurred | 7.2 | – | – | – | – |
| CN1CC[C@]23c4c5ccc(O)c4O[C@H]2[C@@H](O)C=C[C@H]3[C@H]1C5 [morphine, reference compound] | – | – | – | – | – | – | – | – | – | – | – | disappeared at day 4; also recorded: completely lost the analgesic effect on BCP | significantly alleviated | eventually lost the analgesic effect | the same analgesic effect was still kept |
